# Where two headings read alike, the source gives them in different places.
# Test system: Enterobacterales
# Test: MIC, broth microdilution, CDC/FDA Antibiotic Resistance Isolate Bank (Example 7, Tables 8, 11, 12)
# Type: cell-based
# Details: for MIC: read-out: MIC; for MIC90: read-out: MIC90
smiles,measurement,setting,value
"CO/N=C(\C(=O)N[C@@H]1C(=O)N2C(C(=O)[O-])=C(C[n+]3ccn4ncccc43)CS[C@H]12)c1nsc(N)n1 [Cefozopran, cefozopran]",MIC,"Escherichia coli, KUB No. 5765, AR Bank # 369",32 µg/mL
same,MIC,"Escherichia coli, KUB No. 5766, AR Bank # 370",64 µg/mL
same,MIC,"Escherichia coli, KUB No. 5767, AR Bank # 371",32 µg/mL
same,MIC,"Escherichia coli, KUB No. 5768, AR Bank # 372",> 64 µg/mL
same,MIC,"Escherichia coli, KUB No. 5769, AR Bank # 373",0.5 µg/mL
same,MIC,"Escherichia coli, KUB No. 5770, AR Bank # 374",1 µg/mL
same,MIC,"Escherichia coli, KUB No. 5774, AR Bank # 378",≤ 0.03 µg/mL
same,MIC,"Escherichia coli, KUB No. 5779, AR Bank # 433",16 µg/mL
same,MIC,"Escherichia coli, KUB No. 5780, AR Bank # 434",64 µg/mL
same,MIC,"Escherichia coli, KUB No. 5781, AR Bank # 435",> 64 µg/mL
same,MIC,"Escherichia, KUB No. 57, AR Bank # 436 (row cut off)",1 µg/mL
same,MIC,"Klebsiella aerogenes, Enterobacter aerogenes, KUB No. 5559, AR Bank # 62",0.5 µg/mL
same,MIC,"Klebsiella aerogenes, Enterobacter aerogenes, KUB No. 5571, AR Bank # 74",0.5 µg/mL
same,MIC,"Klebsiella aerogenes, Enterobacter aerogenes, KUB No. 5658, AR Bank # 161",32 µg/mL
same,MIC,"Klebsiella aerogenes, Enterobacter aerogenes, KUB No. 5777, AR Bank # 431",4 µg/mL
same,MIC,"Klebsiella oxytoca, KUB No. 5568, AR Bank # 71",> 64 µg/mL
same,MIC,"Klebsiella oxytoca, KUB No. 5644, AR Bank # 147",1 µg/mL
same,MIC,"Klebsiella oxytoca, KUB No. 5771, AR Bank # 375",0.5 µg/mL
same,MIC,"Klebsiella oxytoca, KUB No. 5776, AR Bank # 380",32 µg/mL
same,MIC,"Klebsiella ozaenae, KUB No. 5548, AR Bank# 51",> 64 µg/mL
same,MIC,"Klebsiella ozaenae, KUB No. 5593, AR Bank # 96",> 64 µg/mL
same,MIC,"Klebsiella pnemnonine, KUB No. 5758, AR Bank # 362",32 µg/mL
same,MIC,"Klebsiella pneumoniae, KUB No. 55, AR Bank# 47",> 64 µg/mL
same,MIC,"Klebsiella pneumoniae, KUB No. 5531, AR Bank# 34",4 µg/mL
same,MIC,"Klebsiella pneumoniae, KUB No. 5536, AR Bank# 39",> 64 µg/mL
same,MIC,"Klebsiella pneumoniae, KUB No. 5537, AR Bank# 40",> 64 µg/mL
same,MIC,"Klebsiella pneumoniae, KUB No. 5538, AR Bank# 41",> 64 µg/mL
same,MIC,"Klebsiella pneumoniae, KUB No. 5540, AR Bank# 43",> 64 µg/mL
same,MIC,"Klebsiella pneumoniae, KUB No. 5541, AR Bank# 44",> 64 µg/mL
same,MIC,"Klebsiella pneumoniae, KUB No. 5543, AR Bank# 46",> 64 µg/mL
same,MIC,"Klebsiella pneumoniae, KUB No. 5546, AR Bank# 49",> 64 µg/mL
same,MIC,"Klebsiella pneumoniae, KUB No. 5563, AR Bank # 66",> 64 µg/mL
same,MIC,"Klebsiella pneumoniae, KUB No. 5565, AR Bank # 68",> 64 µg/mL
same,MIC,"Klebsiella pneumoniae, KUB No. 5572, AR Bank # 75",> 64 µg/mL
same,MIC,"Klebsiella pneumoniae, KUB No. 5573, AR Bank # 76",64 µg/mL
same,MIC,"Klebsiella pneumoniae, KUB No. 5576, AR Bank # 79",> 64 µg/mL
same,MIC,"Klebsiella pneumoniae, KUB No. 5577, AR Bank # 80",> 64 µg/mL
same,MIC,"Klebsiella pneumoniae, KUB No. 5584, AR Bank # 87",32 µg/mL
same,MIC,"Klebsiella pneumoniae, KUB No. 5594, AR Bank # 97",> 64 µg/mL
same,MIC,"Klebsiella pneumoniae, KUB No. 5595, AR Bank # 98",16 µg/mL
same,MIC,"Klebsiella pneumoniae, KUB No. 5603, AR Bank # 106",> 64 µg/mL
same,MIC,"Klebsiella pneumoniae, KUB No. 5604, AR Bank # 107",> 64 µg/mL
same,MIC,"Klebsiella pneumoniae, KUB No. 5606, AR Bank # 109",> 64 µg/mL
same,MIC,"Klebsiella pneumoniae, KUB No. 5609, AR Bank # 112",32 µg/mL
same,MIC,"Klebsiella pneumoniae, KUB No. 5610, AR Bank # 113",> 64 µg/mL
same,MIC,"Klebsiella pneumoniae, KUB No. 5612, AR Bank # 115",32 µg/mL
same,MIC,"Klebsiella pneumoniae, KUB No. 5614, AR Bank # 117",> 64 µg/mL
same,MIC,"Klebsiella pneumoniae, KUB No. 5617, AR Bank # 120",32 µg/mL
same,MIC,"Klebsiella pneumoniae, KUB No. 5622, AR Bank # 125",32 µg/mL
same,MIC,"Klebsiella pneumoniae, KUB No. 5623, AR Bank # 126",64 µg/mL
same,MIC,"Klebsiella pneumoniae, KUB No. 5626, AR Bank # 129",32 µg/mL
same,MIC,"Klebsiella pneumoniae, KUB No. 5632, AR Bank # 135",> 64 µg/mL
same,MIC,"Klebsiella pneumoniae, KUB No. 5635, AR Bank # 138",> 64 µg/mL
same,MIC,"Klebsiella pneumoniae, KUB No. 5636, AR Bank # 139",64 µg/mL
same,MIC,"Klebsiella pneumoniae, KUB No. 5637, AR Bank # 140",> 64 µg/mL
same,MIC,"Klebsiella pneumoniae, KUB No. 5638, AR Bank # 141",> 64 µg/mL
same,MIC,"Klebsiella pneumoniae, KUB No. 5639, AR Bank # 142",> 64 µg/mL
same,MIC,"Klebsiella pneumoniae, KUB No. 5640, AR Bank # 143",> 64 µg/mL
same,MIC,"Klebsiella pneumoniae, KUB No. 5642, AR Bank # 145",64 µg/mL
same,MIC,"Klebsiella pneumoniae, KUB No. 5643, AR Bank # 146",> 64 µg/mL
same,MIC,"Klebsiella pneumoniae, KUB No. 5645, AR Bank # 148",64 µg/mL
same,MIC,"Klebsiella pneumoniae, KUB No. 5649, AR Bank # 152",> 64 µg/mL
same,MIC,"Klebsiella pneumoniae, KUB No. 5650, AR Bank # 153",> 64 µg/mL
same,MIC,"Klebsiella pneumoniae, KUB No. 5655, AR Bank # 158",> 64 µg/mL
same,MIC,"Klebsiella pneumoniae, KUB No. 5657, AR Bank # 160",2 µg/mL
same,MIC,"Klebsiella pneumoniae, KUB No. 5757, AR Bank # 361",16 µg/mL
same,MIC,"Klebsiella pneumoniae, KUB No. 5759, AR Bank # 363",16 µg/mL
same,MIC,"Klebsiella pneumoniae, KUB No. 5760, AR Bank # 364",4 µg/mL
same,MIC,"Klebsiella pneumoniae, KUB No. 5772, AR Bank # 376",> 64 µg/mL
same,MIC,"Klebsiella pneumoniae, Klebsiella pneumoniae KUB No. 5784, AR Bank #438",> 64 µg/mL
same,MIC,"Klebsiella pneumoniae, Klebsiella pneumoniae KUB No. 5797, AR Bank #453",> 64 µg/mL
same,MIC,"Klebsiella pneumoniae, Klebsiella pneumoniae KUB No. 5809, AR Bank #504",> 64 µg/mL
same,MIC,"Klebsiella pneumoniae, Klebsiella pneumoniae KUB No. 5810, AR Bank #505",> 64 µg/mL
same,MIC,"Klebsiella pneumoniae, Klebsiella pneumoniae KUB No. 5811, AR Bank #506",> 64 µg/mL
same,MIC,"Klebsiella pneumoniae, Klebsiella pneumoniae KUB No. 5812, AR Bank #507",> 64 µg/mL
same,MIC,"Klebsiella pneumoniae, Klebsiella pneumoniae KUB No. 5827, AR Bank #522",> 64 µg/mL
same,MIC,"Klebsiella pneumoniae, Klebsiella pneumoniae KUB No. 5828, AR Bank #523",32 µg/mL
same,MIC,"Klebsiella pneumoniae, Klebsiella pneumoniae KUB No. 5829, AR Bank #524",32 µg/mL
same,MIC,"Klebsiella pneumoniae, Klebsiella pneumoniae KUB No. 5830, AR Bank #525",32 µg/mL
same,MIC,"Kluyvera ascorbata, KUB No. 5641, AR Bank # 144",16 µg/mL
same,MIC,"Morganella morganii, KUB No. 5554, AR Bank# 57",> 64 µg/mL
same,MIC,"Morganella morganii, KUB No. 5630, AR Bank # 133",64 µg/mL
same,MIC,"Proteus mirabilis, KUB No. 5556, AR Bank# 59",2 µg/mL
same,MIC,"Proteus mirabilis, KUB No. 5652, AR Bank # 155",64 µg/mL
same,MIC,"Proteus mirabilis, KUB No. 5653, AR Bank # 156",0.5 µg/mL
same,MIC,"Proteus mirabilis, KUB No. 5656, AR Bank # 159",> 64 µg/mL
same,MIC,"Proteus mirabilis, KUB No. 5773, AR Bank # 377",16 µg/mL
same,MIC,"Proteus mirabilis, KUB No. 5775, AR Bank # 379",4 µg/mL
same,MIC,"Providencia rettgeri, KUB No. 5579, AR Bank # 82",16 µg/mL
same,MIC,"Raoultella ornithinolvtica, KUB No. 5631, AR Bank # 134",8 µg/mL
same,MIC,"Salmonella enterica, Salmonella Senftenberg, KUB No. 5624, AR Bank # 127",> 64 µg/mL
same,MIC,"Serratia marcescens, KUB No. 5588, AR Bank # 91",0.12 µg/mL
same,MIC,"Serratia marcescens, KUB No. 5596, AR Bank # 99",0.25 µg/mL
same,MIC,"Serratia marcescens, KUB No. 5618, AR Bank # 121",0.12 µg/mL
same,MIC,"Serratia marcescens, KUB No. 5619, AR Bank # 122",0.12 µg/mL
same,MIC,"Serratia marcescens, KUB No. 5620, AR Bank # 123",0.12 µg/mL
same,MIC,"Serratia marcescens, KUB No. 5621, AR Bank # 124",0.12 µg/mL
same,MIC,"Serratia marcescens, KUB No. 5627, AR Bank # 130",0.12 µg/mL
same,MIC,"Serratia marcescens, KUB No. 5628, AR Bank # 131",0.12 µg/mL
same,MIC,"Serratia marcescens, Serratia marcescens KUB No. 5822, AR Bank #517",> 64 µg/mL
same,MIC,"Serratia marcescens, Serratia marcescens KUB No. 5825, AR Bank #520",0.25 µg/mL
same,MIC,"Serratia marcescens, Serratia marcescens KUB No. 5826, AR Bank #521",8 µg/mL
same,MIC50,"carbapenemase-producing Enterobacterales, Metallo-β-lactamase (N = 47), read-out: MIC50",> 64 µg/mL
same,MIC90,"carbapenemase-producing Enterobacterales, Metallo-β-lactamase (N = 47)",> 64 µg/mL
same,MIC90,"carbapenemase-producing Enterobacterales, Serine carbapenemase (N=61)",> 64 µg/mL

# Reference: patent EP4635500A1, “THERAPEUTIC AGENT FOR BACTERIAL INFECTION” (Sumitomo Pharma Co., Ltd., priority 2022, dated 2024)
